Laboratory results reported in patent US8263601B2, “Deuterium substituted xanthine derivatives” (CoNCERT Pharmaceuticals, Inc., priority 2009, dated 2012).
Like-named read-outs stand apart in the source and are kept apart here.

Tests used:
[1] = Stability of compounds in rat whole blood (Example 35); assay type: in vitro ADME; conditions: 5 μM, 37° C., 2 hours, FIG. 3
Procedure: This study was performed to evaluate the stability of the title compounds in rat whole blood. Because the ketone (or keto-compound; either pentoxifylline or 409) and its corresponding M-1 alcohol metabolite interconvert, levels of these components were measured after either the keto-compound was added to the blood or the M-1 was added. In other words, in some tests the keto-compound was the starting test compound and in other tests an M-1 metabolite was the starting test compound.
Fresh rat whole blood was obtained from ViviSource Laboratories, Waltham, Mass. Stock solutions (7.5 millimolar (mM)) of test compounds were prepared in dimethyl sulfoxide (DMSO). The 7.5 mM stock solutions were diluted to 500 micromolar (μM) in acetonitrile (ACN). To 990 microliters (μL) of blood pre-warmed to 37° C. for 7 minutes was added 10 μl, of 500 μM test compound to a final concentration of 5 μM. The test compounds were pentoxifylline, (S)-M1 metabolite of pentoxifylline, (R)-M1 metabolite of pentoxifylline, Compound 409, Compound 435(S), and Compound 435(R). The latter two test compounds are deuterated (S)-M1 and (R)-M1 metabolites, respectively, of Compound 409. The reaction mixture was incubated at 37° C. Aliquots (50 μL) were removed at 0 min, 5 min, 15 min, 30 min, 1 hour and 2 hours following the addition of test compound and added to 96-well plates containing 150 μL of ice cold acetonitrile with an internal standard to stop the reaction. The plates were stored at −20° C. for 20 minutes after which 100 μL of 50% acetonitrile/water was added to the wells of the plate prior to centrifugation to pellet precipitated proteins. A 200-μL aliquot of each supernatant was transferred to another 96-well plate and analyzed by LC-MS/MS using an Applied Bio-systems API 4000 mass spectrometer for amounts of the administered compound and its specific metabolite listed in Table 11 below.
The results of this study are depicted in FIGS. 2 and 3.

[2] = Compound stability in human liver microsomes (Example 36); assay type: in vitro ADME; conditions: 30 minutes
Procedure: Example 36 is similar to Example 35 in design, except that human liver microsomes were used instead of rat whole blood to study the metabolism of the compounds.
Human liver microsomes (20 mg/mL) were obtained from Xenotech, LLC (Lenexa, Kans.). β-nicotinamide adenine dinucleotide phosphate, reduced form (NADPH), magnesium chloride (MgCl2), and dimethyl sulfoxide (DMSO) were purchased from Sigma-Aldrich.
Stock solutions containing 7.5 mM of test compounds (pentoxifylline, (S)-M1 metabolite, (R)-M1 metabolite, Compound 409, Compound 435(S), and Compound 435(R)) were prepared in DMSO. The 7.5-mM stock solutions were diluted to 250 μM in acetonitrile (ACN). The human liver microsomes were diluted to 2.5 mg/mL in 0.1 M potassium phosphate buffer, pH 7.4, containing 3 mM MgCl2. The diluted microsomes were added to wells of a 96-well deep-well polypropylene plate in triplicate. 10 μL of the 250 μM test compound was added to the microsomes and the mixture was pre-warmed to 37° C. for 10 minutes. Reactions were initiated by addition of pre-warmed NADPH solution. The final reaction volume was 0.5 mL and contained 2.0 mg/mL human liver microsomes, 5 μM test compound, and 2 mM NADPH in 0.1M potassium phosphate buffer, pH 7.4, and 3 mM MgCl2. The reaction mixtures were incubated at 37° C., and 50-μL aliquots were removed at 0, 5, 10, 20, and 30 minutes and added to shallow-well 96-well plates which contained 50 μL of ice-cold acetonitrile with internal standard to stop the reactions. The plates were stored at 4° C. for 20 minutes after which 100 μL of water was added to the wells of the plate before centrifugation to pellet precipitated proteins. Supernatants were transferred to another 96-well plate and analyzed for the amount of the administered compound and its specific metabolite (listed in Table 11 above) by LC-MS/MS using an Applied Bio-systems API 4000 mass spectrometer.
The results of this study are depicted in FIGS. 4 and 5. […]

[3] = Pharmacokinetic study of 435(S) and other representative compounds in chimps after oral dosing (Example 40); assay type: in vivo; conditions: species named in label measured in plasma
Procedure: 435(S) and representative compounds 121(S), 137(S), 421(S) and 437(S) were separately dissolved in warm (65° C.) water at a concentration [[of 10 mg/mL]]. The same protocol described for Example 39 was then followed for each representative compound.

[4] = Pharmacokinetic study of pentoxifylline and Compound 435(S) in chimps after intravenous dosing (Example 38); assay type: in vivo; conditions: for AUC(0-inf): IV infusion 75 mg each of pentoxifylline and 435(S) over 10 minutes, species named in label measured in plasma; for % Difference in AUC0-∞ Female (deuterated vs nondeuterated species) / % Difference in AUC0-∞ Male (deuterated vs nondeuterated species): intravenous
Procedure: Pentoxifylline and Compound 435(S) were separately dissolved in warm (65° C.) saline at a concentration at 10 mg/mL. A 1:1 mixture of the two compounds was then prepared containing a final concentration of 5 mg/mL of each compound and the mixture was then sterile filtered through a 0.2-μm filter.
Two chimps (one male and one female) were used in each of the oral and intravenous studies. Animals were fasted overnight prior to administration of compounds. All animals were sedated with ketamine (approximately 10 mg/kg) and/or telazol (approximately 5 mg/kg) prior to dosing. Intravenous administration was achieved by IV infusion of 75 mg of each compound (15 mL total dosing solution) over 10 minutes. Oral administration was achieved by oral gavage of a single 75 mg dose of each compound (15 mL total dosing solution). Blood samples (6 mL) were collected from the dosed chimps at various times prior to and after dosing. For intravenous administrations blood samples were collected at 0 min (preinfusion), 5 min, 9.5 min (immediately before the end of the infusion), then 6, 15, 30 and 45 min, and 1, 2, 4, 6, 8, 10 and 12 hr after the infusion is stopped. For oral administrations, blood samples were collected at 0 min (predose), 15 and 30 min, and 1, 1.5, 2, 4, 6, 8, 10 and 12 hr postdose.
Blood samples were placed in tubes containing sodium heparin, mixed and stored on ice until centrifuged. Within 30 minutes of collection, plasma was isolated by centrifuging the blood samples and removing an aliquot (200 μL) of the resulting plasma. Each 200-μL aliquot of plasma was mixed with 400 μL acetonitrile and stored at −70° C. until further analysis by LC-MS/MS using an Applied Bio-systems API 4000 mass spectrometer.
The analysis of all samples by LC-MS/MS was performed as described above for the rat plasma samples in Example 37.

[5] = female, plasma, po, 65 mg, Table 17 i): female chimp, 435(S) and 121(S), read-out: AUC0-12 Female
[6] = female, plasma, po, 65 mg, Table 17 ii): female chimp, 435(S) and 137(S), read-out: AUC0-12 Female
[7] = female, plasma, po, 65 mg, Table 17 iii): female chimp, 435(S) and 421(S), read-out: AUC0-12 Female
[8] = female, plasma, po, 65 mg, Table 17 iv): female chimp, 435(S) and 437(S), read-out: AUC0-12 Female
[9] = male, plasma, po, 65 mg, Table 17 i): male chimp, 435(S) and 121(S), read-out: AUC0-12 Male
[10] = male, plasma, po, 65 mg, Table 17 ii): male chimp, 435(S) and 137(S), read-out: AUC0-12 Male
[11] = male, plasma, po, 65 mg, Table 17 iii): male chimp, 435(S) and 421(S), read-out: AUC0-12 Male
[12] = male, plasma, po, 65 mg, Table 17 iv): male chimp, 435(S) and 437(S), read-out: AUC0-12 Male
[13] = female chimp, read-out: AUC0-∞ Female
[14] = male chimp, read-out: AUC0-∞ Male

| AUC(0-t) [3, 5] | AUC(0-t) [3, 6] | AUC(0-t) [3, 7] | AUC(0-t) [3, 8] | AUC(0-t) [3, 9] | AUC(0-t) [3, 10] | AUC(0-t) [3, 11] | AUC(0-t) [3, 12] | SMILES | Keto-compound (pentoxifylline or Compound 409) formed from M-1 alcohol [1] | Keto-compound (pentoxifylline or Compound 409) formed from M-1 alcohol ([2]; human liver microsomes 2.0 mg/mL, 5 μM, NADPH, FIG. 5 columns C and D) | More pentoxifylline produced from (S)-M1 than Compound 409 produced from Compound 435 (S) ([2]; human liver microsomes) | AUC(0-inf) [4, 13] | % Difference in AUC0-∞ Female (deuterated vs nondeuterated species) ([4]; female chimp) | AUC(0-inf) [4, 14] | % Difference in AUC0-∞ Male (deuterated vs nondeuterated species) ([4]; male chimp) |
| --- | --- | --- | --- | --- | --- | --- | --- | --- | --- | --- | --- | --- | --- | --- | --- |
|  |  |  |  |  |  |  |  | C[C@H](O)CCCCn1c(=O)c2c(ncn2C)n(C)c1=O [(S)-M1, reference compound] | appreciable amount of pentoxifylline present | significant amount of pentoxifylline present | Approximately 30% |  |  |  |  |
| 133 ng·h/mL | 243 ng·h/mL | 947 ng·h/mL | 1140 ng·h/mL | 354 ng·h/mL | 100 ng·h/mL | 881 ng·h/mL | 686 ng·h/mL | [2H]c1nc2c(c(=O)n(CCCC([2H])([2H])[C@@]([2H])(O)C([2H])([2H])[2H])c(=O)n2C)n1C([2H])([2H])[2H] [Compound 435(S), (S)-8-d1-1-(4,4,5,6,6,6-d6-5-Hydroxyhexyl)-3-methyl-7-(methyl-d3)-1H-purine-2,6(3H,7H)-dione] | not detected |  |  | 1210 ng·h/mL | +84% | 2520 ng·h/mL | +61% |
| 670 ng·h/mL | 754 ng·h/mL | 376 ng·h/mL | 306 ng·h/mL | 585 ng·h/mL | 719 ng·h/mL | 500 ng·h/mL | 562 ng·h/mL | [2H]c1nc2c(c(=O)n(CCCC(=O)O)c(=O)n2C)n1C([2H])([2H])[2H] [Deuterated M5 (M5a)] |  |  |  | 632 ng·h/mL | −60% | 428 ng·h/mL | −65% |
